The values below come from ChEMBL document CHEMBL1201862, “PubChem BioAssay data set” (2004).

Activity calls are given as the source filed them. Some results are limits rather than exact numbers.

In experiment [1] the test system is P388/ADR. Kind of experiment: cells. As to conditions: Mus musculus. In kind it is functional.
Experiment [2] has as its system SN12K1. Description: cells. In kind it is functional. The conditions noted are these: Homo sapiens.
The test system of experiment [3] is P388. Kind of experiment: cells. The conditions noted are these: Mus musculus. Type of experiment: functional.
The nature of experiment [4]: viability of uninfected HEp-2 cells – cell-based, HTS, cytotoxicity control for RSV inhibitor project, dose response (AID 2410). As to conditions: human respiratory syncytial virus. Type of experiment: functional.
Experiment [5] is described as follows: cells. In kind it is functional.
The target of experiment [6] is T1, Rac GTPase-activating protein 1 (Homo sapiens, UniProt Q9H0H5).
T1 sequence (Q9H0H5 whole entry): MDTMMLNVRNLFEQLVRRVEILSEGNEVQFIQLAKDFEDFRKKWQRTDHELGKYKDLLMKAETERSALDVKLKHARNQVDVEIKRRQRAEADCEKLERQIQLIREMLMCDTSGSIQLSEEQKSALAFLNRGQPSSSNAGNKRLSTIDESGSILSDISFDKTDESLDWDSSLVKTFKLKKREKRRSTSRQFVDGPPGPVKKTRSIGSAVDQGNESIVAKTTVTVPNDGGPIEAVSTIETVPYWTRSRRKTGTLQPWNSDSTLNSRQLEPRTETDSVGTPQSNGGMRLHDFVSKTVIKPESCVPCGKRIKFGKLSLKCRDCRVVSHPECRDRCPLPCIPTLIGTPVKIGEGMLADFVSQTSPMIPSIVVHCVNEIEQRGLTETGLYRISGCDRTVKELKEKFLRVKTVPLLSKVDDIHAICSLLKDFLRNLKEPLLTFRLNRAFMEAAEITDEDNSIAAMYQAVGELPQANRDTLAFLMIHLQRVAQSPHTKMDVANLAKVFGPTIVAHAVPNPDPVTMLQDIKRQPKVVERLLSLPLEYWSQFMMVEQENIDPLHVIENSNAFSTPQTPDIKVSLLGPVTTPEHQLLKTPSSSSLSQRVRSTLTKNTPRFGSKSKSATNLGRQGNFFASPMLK
Description: blockers of MgcRacGAP-driven Rac1 GTP hydrolysis – biochemical, ADP Hunter fluorescence, primary and confirmatory, confirmation (AID 624330). In kind it is functional.

In experiment [7] the target is Large T antigen (Simian virus 40, UniProt P03070). In kind it is functional, Betapolyomavirus macacae.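 Also: Confirmatory-stage PubChem screen for compounds that inhibit SV40 T antigen.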
Chain of Large T antigen (P03070 whole entry): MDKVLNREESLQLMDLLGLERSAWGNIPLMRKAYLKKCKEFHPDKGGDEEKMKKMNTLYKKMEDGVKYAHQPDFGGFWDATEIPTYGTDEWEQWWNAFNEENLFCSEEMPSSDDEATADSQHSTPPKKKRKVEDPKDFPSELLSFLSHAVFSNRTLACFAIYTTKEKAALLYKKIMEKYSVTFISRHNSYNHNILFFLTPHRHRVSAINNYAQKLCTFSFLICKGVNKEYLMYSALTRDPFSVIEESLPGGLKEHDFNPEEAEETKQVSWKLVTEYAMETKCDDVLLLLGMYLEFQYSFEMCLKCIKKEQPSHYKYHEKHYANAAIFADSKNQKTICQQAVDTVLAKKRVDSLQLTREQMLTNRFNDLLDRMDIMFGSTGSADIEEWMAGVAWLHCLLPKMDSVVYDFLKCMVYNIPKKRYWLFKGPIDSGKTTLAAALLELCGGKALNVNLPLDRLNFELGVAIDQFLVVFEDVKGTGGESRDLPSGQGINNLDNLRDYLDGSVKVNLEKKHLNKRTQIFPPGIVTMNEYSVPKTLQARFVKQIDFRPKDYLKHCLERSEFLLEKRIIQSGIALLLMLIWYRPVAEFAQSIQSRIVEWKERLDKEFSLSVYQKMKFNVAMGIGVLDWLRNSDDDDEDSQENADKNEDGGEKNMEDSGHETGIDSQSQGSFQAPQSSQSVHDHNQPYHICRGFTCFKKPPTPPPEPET
Experiment [8] has as its target T2, Heat shock factor protein 1 (Mus musculus, UniProt P38532).
T2 sequence (P38532 whole entry): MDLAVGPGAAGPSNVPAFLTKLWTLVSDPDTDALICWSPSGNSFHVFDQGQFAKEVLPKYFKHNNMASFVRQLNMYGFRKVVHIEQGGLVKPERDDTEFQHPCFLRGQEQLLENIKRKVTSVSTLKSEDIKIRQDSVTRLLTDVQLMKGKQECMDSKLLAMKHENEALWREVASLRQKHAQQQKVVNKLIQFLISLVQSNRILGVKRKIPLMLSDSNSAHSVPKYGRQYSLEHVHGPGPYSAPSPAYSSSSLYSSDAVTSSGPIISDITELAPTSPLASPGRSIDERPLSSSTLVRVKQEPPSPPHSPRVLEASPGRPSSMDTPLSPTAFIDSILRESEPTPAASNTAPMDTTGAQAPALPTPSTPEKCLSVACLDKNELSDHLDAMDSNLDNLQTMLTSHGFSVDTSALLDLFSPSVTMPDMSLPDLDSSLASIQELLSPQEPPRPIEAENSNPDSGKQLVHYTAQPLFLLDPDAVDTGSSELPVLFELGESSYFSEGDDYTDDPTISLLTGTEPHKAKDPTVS
Kind of experiment: enhancement of HSF1-driven luciferase signal – cell-based, NIH3T3, luminescence, dose retest, confirmation (AID 435004).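 Also: stress induced by proteasome inhibitor MG132 added 30 min after compound; luciferase reporter driven by HSF1 response element in NIH3T3 cells; actives raise luminescence as potentiators of the MG132 stress response.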 In kind it is functional.

Experiment [9] in a line: Luminescence Cell-Based Dose Retest to Confirm Inhibitors of Cancer Stem Cells. [Related pubchem assays (depositor defined):AID2717, AID2721]. In kind it is functional. The conditions noted are these: Homo sapiens.
Experiment [10] relates to INS1. Kind of experiment: INS-1E survival protection against cytokine death – cell-based, luminescence, retest, dose response (AID 449756).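 Also: cell death triggered by IL-1 beta plus TNF-alpha plus IFN-gamma mixture; protective hits raise ATP signal compared with cytokine alone wells.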 In kind it is functional. The conditions noted are these: Rattus norvegicus.
Experiment [11] deals with T3, Cytochrome P450 1A2 (Homo sapiens, UniProt P05177).
T3 sequence (P05177 whole entry): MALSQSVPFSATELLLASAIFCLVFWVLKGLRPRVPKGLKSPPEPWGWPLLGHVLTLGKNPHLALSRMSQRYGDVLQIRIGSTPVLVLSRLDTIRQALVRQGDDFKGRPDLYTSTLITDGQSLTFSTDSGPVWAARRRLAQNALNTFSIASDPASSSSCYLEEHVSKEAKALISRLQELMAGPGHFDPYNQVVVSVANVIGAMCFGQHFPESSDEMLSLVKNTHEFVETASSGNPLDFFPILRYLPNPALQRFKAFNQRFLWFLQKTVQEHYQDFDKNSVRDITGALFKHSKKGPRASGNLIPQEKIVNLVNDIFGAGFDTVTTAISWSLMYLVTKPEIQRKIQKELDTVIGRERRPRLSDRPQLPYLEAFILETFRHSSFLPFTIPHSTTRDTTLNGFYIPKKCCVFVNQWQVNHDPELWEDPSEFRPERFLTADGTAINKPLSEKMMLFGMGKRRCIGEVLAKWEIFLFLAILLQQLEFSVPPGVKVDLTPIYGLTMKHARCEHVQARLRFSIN

For `CCOC(=O)c1ccc(N[C@@H]2c3cc4c(cc3C(c3cc(OC)c(O)c(OC)c3)[C@H]3C(=O)OCC32)OCO4)cc1O` (stereo partly drawn), the GI50 in [1] is 0.227 µM (active); in experiment [2], 0.0887 µM (active); in experiment [3], < 0.01 µM (active). Turning to `C/C(N)=C(/C#N)C(=O)COC(=O)c1cc(-c2cccc3ccccc23)nc2ccccc12`, the CC50 in experiment [4] is 7.25 µM (active). On to `O=C(OCc1cccc(F)c1)c1ccc2c(=O)n3c(nc2c1)CCC3`, for which the IC50 in [5] was 12.1 µM (active).

With `COC(=O)c1cc(NC(S)=NCc2ccc(Cl)cc2)cc(C(=O)OC)c1`, the CC50 in experiment [4] was 26.3 µM (active). Still for that read-out and setting: the figure for `COc1cc(OC)cc(-c2c(-c3cccs3)c3cc(-c4cc[nH]n4)ccc3n2C)c1` is 11.9 µM (active); for `N#CC1=C(N)Oc2cc(O)c(/C=N/c3ccccc3)cc2C1c1ccccc1` (stereo not drawn) it is 9.1 µM (active). Regarding `CCOC(=O)c1c(-c2ccccc2)csc1NC(=O)C(C)NCCCN1CCOCC1` (stereo not drawn), the IC50 in [6] was 86.1 µM (active). With `C[C@@H]1O[C@@H](O[C@H]2CC[C@]3(C=O)[C@H]4CC[C@]5(C)[C@@H](c6ccc(=O)oc6)CC[C@]5(O)[C@@H]4CC[C@]3(O)C2)[C@H](O)[C@H](O)[C@H]1O[C@@H]1O[C@H](CO)[C@@H](O)[C@H](O)[C@H]1O` [HELLEBRIN], the GI50 in [1] was 113 µM (inactive); in [2] it was 0.0375 µM (active); in experiment [3], 64.7 µM (inactive). For `COc1cccc2c1C(=O)c1c(O)c3c(c(O)c1C2=O)C[C@@](O)(/C(C)=N/NC(=O)c1ccccc1)C[C@@H]3OC1CC(N)C(O)C(C)O1` (stereo partly drawn), the results for the GI50 in [1], in [2] and in experiment [3] were 5.61 µM (inactive), 0.0586 µM (active) and 0.132 µM (active), respectively. Consider `[N-]=[N+]=CC(=O)OCC(N)C(=O)O` (stereo not drawn), for which the values for the GI50 in [1], in [2] and in [3] were 0.352 µM (active), 0.206 µM (active) and 0.156 µM (active), respectively. For `CCOc1cc(/C=N/n2cnnc2)ccc1O`, the IC50 in experiment [7] is 13.6 µM (active); in experiment [6] it was 34.3 µM (active). In the case of `CN=C(S)NNC(=O)COc1cccc(C)c1C`, the CC50 in experiment [4] was 48.9 µM (active). Consider `COc1cccc(OC)c1NC(=O)CN1CCN(C)CC1`, for which the IC50 in [6] was 100 µM (active).

For the compound `COc1cc2c3c(c1OC)C1(C=CC(=O)C=C1)CC3N(C(=O)c1ccccc1)CC2` (stereo not drawn), in experiment [8], the EC50 was > 260 µM (inactive). Turning to `Cc1csc(N/N=C/c2ccccn2)n1`, in experiment [9], the AC50 is 11.2 µM (active). On to `CC1C(O)C2(Oc3cc4c(c5c3[C@@H](CC5O)[C@H]2C)CCC2Cc3nc5c(nc3C[C@@]42C)CC2CCC3C4=C[C@H]6O[C@@]7(O[C@@](C)(CO)C[C@@H]7O)C(C)[C@@]6(O)[C@]4(C)[C@@H](O)CC3[C@]2(C)C5)OC1(C)C` (stereo partly drawn), for which the results for the GI50 in [1], in [2] and in [3] were 0.52 µM (active), 0.0278 µM (active) and 0.0278 µM (active), respectively.

`Cc1ccc(S(=O)(=O)N2CCOCC2)cc1NC(=O)CN1CCN(c2ccc(O)cc2)CC1`: the IC50 in experiment [7] was 5.03 µM (active). As for `CCOc1ccc(CN2CCN(Cc3c[nH]c4ccccc34)CC2)cc1`, the AC50 in experiment [10] was 7.24 µM (active). Besides, in experiment [6], the IC50 was 93 µM (active). For `CC(=O)N1CCN(CC(O)COc2ccc(Br)cc2)CC1` (stereo not drawn), the IC50 in experiment [6] was 159 µM (active).

As for `C=CCN(C(=O)Cn1nc(C)n2c(cc3cc(C)ccc32)c1=O)c1ccccc1`, the CC50 in [4] is > 50 µM (active).

Consider `CN(C)c1ccc(NC(=O)CN2CCC(C(=O)c3ccc(F)cc3)CC2)cc1`, for which the IC50 in [7] is 10.4 µM (active). With `Cc1ccc(/N=N/c2c(C)[nH]n(C(N)=S)c2=O)cc1`, in [5], the IC50 is 5.24 µM (active).

`COc1cc(C=C2C(=O)NC(=O)NC2=O)ccc1OCc1ccc([N+](=O)[O-])cc1`: the IC50 in experiment [6] is 158 µM (active). As for `Cc1ccc2c[nH]nc2c1N`, in [7], the IC50 was 15.4 µM (active). With `CC(=O)OCC1OC(n2cc(F)c(=O)[nH]c2=O)C(NC(=O)OCc2ccccc2)C(OC(C)=O)C1OC(C)=O` (stereo not drawn), the GI50 in experiment [1], in [2] and in experiment [3] was > 100 µM (inactive) in each case. Consider `CCCCOc1ccc(NC(=O)CN2CCN(CC)CC2)cc1`, for which the IC50 in experiment [6] was 71.7 µM (active). For the compound `CCCCOC(=O)Cn1c(-c2ccccc2)nc2ccccc2c1=O`, the IC50 in experiment [5] was 12.7 µM (active). In the case of `O=NN(CCCl)C(=O)NC1CCSc2ccccc21` (stereo not drawn), the GI50 in experiment [1] is 27.9 µM (inactive); in experiment [2], > 100 µM (inactive); in experiment [3], 21.1 µM (inactive). With `CN(C(=O)c1ccccc1C(=O)OCC(=O)NCc1cccs1)C1CCCCC1`, the IC50 in [7] is > 100 µM (active). As for `CCCCC(C)C1CCC2(C)C=CC(=O)C(C)=C2C1O` (stereo not drawn), the GI50 in experiment [1], in [2] and in [3] was > 100 µM (inactive) in each case. As for `CCCCn1nnnc1SCC(=O)Nc1ccc(N(C)C)cc1`, the IC50 in experiment [7] was 11.2 µM (active). As to `N/C(S)=N/c1c(Cl)cccc1Cl`, the concentration for half-maximal inhibition (IC50) in experiment [7] was 77.4 µM (active). Regarding `Nc1ncnc2c1ncn2[C@@H]1O[C@H](COP(=O)(O)O)[C@@H](O)[C@@H]1O`, the GI50 in experiment [1] is > 16.1 µM (inactive); in experiment [2], > 50 µM (inactive); in experiment [3], > 7.93 µM (inactive). On to `CCc1ccc(NC(=O)c2cc3c(C)nc4ccccc4c3o2)cc1`, for which, in experiment [4], the CC50 is 39.6 µM (active). Also, the AC50 in [9] is 6.51 µM (active). Regarding `Nc1ccc2[nH]c3c(-c4ccccc4)nccc3c2c1`, the GI50 was 19.9 µM (inactive) in experiment [1], 22.3 µM (inactive) in experiment [2] and 6.21 µM (inactive) in [3]. The like results for `COc1ccc2[nH]c3ccc4cc[n+](CCN5CCC(C6CCN(CC[n+]7ccc8ccc9[nH]c%10ccc(OC)cc%10c9c8c7)CC6)CC5)cc4c3c2c1` were, in that order, 1.84 µM (inactive), 0.417 µM (active) and 0.546 µM (active). As for `Cc1nc(-c2ccccc2)sc1C(=O)/C=C/c1ccc(Cl)cc1`, the AC50 in [9] is 4.89 µM (active). Take `CS(=O)(=O)Cc1nc2ccccc2oc1=O`: the IC50 in [5] was 2.93 µM (active); in experiment [6] it was 73.6 µM (active). As for `C=C1C(=O)C[C@@]23CCC[C@@]12CC(O)C3` (stereo partly drawn), the GI50 in [1] was 5.15 µM (inactive); in experiment [2] it was 17 µM (inactive); in experiment [3] it was 3.61 µM (inactive). Take `Cc1c2ccnc(-c3ccccc3)c2cc2c1[nH]c1ccccc12`: the GI50 in [1] is 2.63 µM (inactive); in experiment [2] it was 1.39 µM (inactive); in experiment [3] it was 2.9 µM (inactive). As for `C/C(=C\c1ccc(C(=O)O)cc1)c1ccc2c(c1)C(C)(C)CCC2(C)C`, the AC50 in [9] was 3.1 µM (active); in experiment [11], 31.6 µM (inconclusive). For the compound `COc1ccc(NC2CCCN(C(=O)c3ccc(OC)o3)C2)cc1` (stereo not drawn), the IC50 in experiment [7] was 16.7 µM (active).

In general, GI50 refers to the concentration giving 50% growth inhibition. As usually defined, the CC50 is the concentration giving 50% cytotoxicity. One may read the IC50 as the concentration that inhibits the measured activity by half. The EC50 is the concentration that produces a half-maximal response. As usually defined, the AC50 is the concentration giving half of the maximal activity seen.
